Target: ERK2 kinase (Homo sapiens (Human), UniProt P28482)
Test: In vitro enzyme activity assay, ERK2 kinase (Z'-LYTE)
Assay type: biochemical
Settings: class symbols; read-out: ERK2 IC50
Protocol: Half inhibitory activity of the compounds of the invention against ERK2 kinase (IC50 value) was determined in this Example.
• Enzyme: extracellular signal-regulated kinase ERK2 kinase (PV3595, Invitrogen) • Kit: Z′-LYTE® Protein Kinase Assay Kit-Ser/Thr 3 Peptide (PV3176, Invitrogen) • Kit components: The substrate Z′-LYTE™ Ser/Thr 3 Peptide (PV3200) • The phosphorylation substrate Z′-LYTE™ Ser/Thr 3 Phospho-peptide (PV3215) • 5× kinase buffer: 250 mM HEPES (pH 7.5), 50 mM MgCl2, • 5 mM EGTA, 0.05% BRIJ-35 (PV3189, Invitrogen) • ATP (PV3227, Invitrogen) • Development Reagent A (PV3295, Invitrogen) • Development Buffer (P3127, Invitrogen) • Stop Reagent (P3094, Invitrogen) • Microplate reader: The multil-mode microplate reader PerkinElmer EnVision® • Microplate: black shallow 384-well microplate (6008269, PerkinElmer) (2). Assay Protocol:
The substrate Z′-LYTE™ Ser/Thr 3 Peptide, the phosphorylation substrate Z′-LYTE™ Ser/Thr 3 Phospho-peptide, 1× kinase buffer (5× kinase buffer was diluted with ultra pure water by five times), ATP, Development Reagent A, Development Buffer, Stop Reagent were balanced to room temperature for use. The screening concentrations for detecting the effect of the compounds of the invention on the ERK kinase activity were seven 3-fold serial dilutions starting from 1 μM (from 0.2 μM for the positive drug control) using 4% DMSO as co-solvent. 5 μL enzyme system (50 mM HEPES pH 7.5, 1 mM EGTA, 10 mM MgCl2, 0.01% Brij-35, 4 uM substrate, 0.8 ng/μL enzyme), 2.5 μL Compound, 2.5 μL 400 μM ATP were added into 384 well microplate, followed by incubation at room temperature for 60 min in the dark. After the reaction was completed, 5 μl the developing agent (Development Reagent A) diluted with the developing buffer (Development Buffer) was added to all reaction wells, followed by incubation at the room temperature for 60 min in the dark. 5 μL the terminating agent was added to each well to terminate the reaction. The fluorescence was determined using the multil-mode microplate reader PerkinElmer EnVision® (excitation wavelength 400 nm, emission wavelength 460 nm and 528 nm).
The inhibition rate of each well was calculated from 100% phosphorylation substrate well and 0% phosphorylation substrate well using the data analysis method below: phosphorylation %=1−{(emission rate×F100%−C100%)/[C0%−C100%+emission rate×(F100%−F0%)]}×100 inhibition %=100×(1−phosphorylation % of the test compound well/phosphorylation % of the 0% inhibition control) • wherein: • emission rate=fluorescence emission of the sample at 445 nm/fluorescence emission of the sample at 520 nm • F100%=the average fluorescence emission of the control well of 100% phosphorylation substrate at 520 nm • F0%=the average fluorescence emission of the control well of 0% phosphorylation substrate at 520 nm • C100%=the average fluorescence emission of the control well of 100% phosphorylation substrate at 445 nm • C0%=the average fluorescence emission of the control well of 0% phosphorylation substrate at 445 nm
Tests were carried out in duplicate. IC50 values were calculated from the inhibition of the kinase by the test compounds at a range of different concentrations.

Chain of ERK2 kinase (P28482 whole entry): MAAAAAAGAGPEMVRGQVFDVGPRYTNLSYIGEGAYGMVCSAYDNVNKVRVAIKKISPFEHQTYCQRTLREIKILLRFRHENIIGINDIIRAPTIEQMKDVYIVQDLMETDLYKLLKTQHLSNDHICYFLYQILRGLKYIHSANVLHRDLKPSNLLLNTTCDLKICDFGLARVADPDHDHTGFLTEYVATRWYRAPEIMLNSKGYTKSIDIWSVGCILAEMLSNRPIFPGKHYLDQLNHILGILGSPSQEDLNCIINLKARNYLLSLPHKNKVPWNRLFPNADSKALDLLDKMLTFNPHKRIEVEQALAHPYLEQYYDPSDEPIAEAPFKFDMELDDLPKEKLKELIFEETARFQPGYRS

With `Cn1nccc1Nc1cc(-c2cc(F)c3c(c2)CCN3C(=O)Cc2cccnc2C2CCOCC2)ccn1` [Example P57, 1-(7-fluoro-5-(2-((1-methyl-1H-pyrazol-5-yl)amino)pyridin-4-yl)indolin-1-yl)-2-(2-(tetrahydro-2H-pyran-4-yl)pyridin-3-yl)ethan-1-one] as the molecule, how does the IC50 read?
Its IC50 is 100 to 1000 nM.

With `Cc1cnc(Nc2ccnn2C)nc1-c1cc(F)c2c(c1)CCN2C(=O)Cc1cccnc1Cl` [Example P47, 2-(2-chloropyridin-3-yl)-1-(7-fluoro-5-(5-methyl-2-((1-methyl-1H-pyrazol-5-yl)amino)pyrimidin-4-yl)indolin-1-yl)ethan-1-one] as the molecule, how does the IC50 read?
The IC50 was ≤ 10 nM.

`Cn1nccc1Nc1nccc(-c2cc(Cl)c3c(c2)CCN3C(=O)Cc2cccnc2Cl)n1` [Example P11, 1-(7-chloro-5-(2-((1-methyl-1H-pyrazol-5-yl)amino)pyrimidin-4-yl)indolin-1-yl)-2-(2-chloropyridin-3-yl)ethan-1-one] was tested. Which IC50 did it give?
Its IC50 is 10 to 100 nM.

Which IC50 does the source give for `O=C(Cc1cccnc1Cl)N1CCc2cc(-c3ccnc(NC4CCOCC4)n3)cc(F)c21` [Example P5, 2-(2-chloropyridin-3-yl)-1-(7-fluoro-5-(2-((tetrahydro-2H-pyran-4-yl)amino)pyrimidin-4-yl)indolin-1-yl)ethan-1-one] here?
The IC50 was ≤ 10 nM.

`Cn1nccc1Nc1nccc(-c2cc(F)c3c(c2)CCN3C(=O)Cc2c(F)ccnc2Cl)n1` [Example P33, 2-(2-chloro-4-fluoropyridin-3-yl)-1-(7-fluoro-5-(2-((1-methyl-1H-pyrazol-5-yl)amino)pyrimidin-4-yl)indolin-1-yl)ethan-1-one] was tested. Which IC50 did it give?
Its IC50 is 10 to 100 nM.

How did the IC50 turn out when `Cn1nc(CO)cc1Nc1cc(-c2cc(F)c3c(c2)CCN3C(=O)Cc2cccnc2Cl)ccn1` [Example P35, 2-(2-chloropyridin-3-yl)-1-(7-fluoro-5-(2-((3-(hydroxylmethyl)-1-methyl-1H-pyrazol-5-yl)amino)pyridin-4-yl)indolin-1-yl)ethan-1-one] was run?
Its IC50 is 10 to 100 nM.

For `Cc1cc(-c2ccnc(Nc3ccnn3C)n2)cc2c1N(C(=O)Cc1cccnc1Cl)CC2` [Example P13, 2-(2-chloropyridin-3-yl)-1-(7-methyl-5-(2-((1-methyl-1H-pyrazol-5-yl)amino)pyrimidin-4-yl)indolin-1-yl)ethan-1-one], which IC50 is on record?
The IC50 was 100 to 1000 nM.

For `Cn1nccc1Nc1cc(-c2cc(F)c3c(c2)CCN3C(=O)Cc2ncccc2Cl)ccn1` [Example P28, 2-(3-chloropyridin-2-yl)-1-(7-fluoro-5-(2-((1-methyl-1H-pyrazol-5-yl)amino)pyridin-4-yl)indolin-1-yl)ethan-1-one], which IC50 is on record?
The IC50 was 10 to 100 nM.

How did the IC50 turn out when `COCC1Cc2cc(-c3nc(Nc4ccnn4C)ncc3C)cc(F)c2N1C(=O)Cc1cccnc1Cl` (centres unmarked) [Example P49, 2-(2-chloropyridin-3-yl)-1-(7-fluoro-2-(methoxymethyl)-5-(5-methyl-2-((1-methyl-1H-pyrazol-5-yl)amino)pyrimidin-4-yl)indolin-1-yl)ethan-1-one] was run?
The IC50 was ≤ 10 nM.

`Cn1nccc1Nc1nccc(-c2cc(F)c3c(c2)CCN3C(=O)Cc2ccccc2Cl)n1` [Example P18, 2-(2-chlorophenyl)-1-(7-fluoro-5-(2-((1-methyl-1H-pyrazol-5-yl)amino)pyrimidin-4-yl)indolin-1-yl)ethan-1-one] was tested. Which IC50 did it give?
The IC50 was ≤ 10 nM.

How did the IC50 turn out when `CC(CCO)Nc1nccc(-c2cc(F)c3c(c2)CCN3C(=O)Cc2cccnc2Cl)n1` (centres unmarked) [Example P7, 2-(2-chloropyridin-3-yl)-1-(7-fluoro-5-(2-((4-hydroxylbutan-2-yl)amino)pyrimidin-4-yl)indolin-1-yl)ethan-1-one] was run?
The IC50 was 10 to 100 nM.

Same assay, conditions: read-out: IC50 against ERK2 kinase

How did the IC50 turn out when `C[C@H]1Cc2cc(-c3ccnc(Nc4ccnn4C)c3)cc(F)c2N1C(=O)Cc1cccnc1Cl` [Example P42] was run?
Its IC50 is 2.7 nM.

With `Cn1nccc1Nc1cc(-c2cc(F)c3c(c2)CCN3C(=O)C(O)c2cccnc2Cl)ccn1` (centres unmarked) [Example P60, 2-(2-chloropyridin-3-yl)-1-(7-fluoro-5-(2-((1-methyl-1H-pyrazol-5-yl)amino)pyridin-4-yl)indolin-1-yl)-2-hydroxylethan-1-one] as the molecule, how does the IC50 read?
Its IC50 is 10 nM.

Which IC50 does the source give for `Cn1nccc1Nc1nccc(-c2cc(F)c3c(c2)CCN3C(=O)Cc2ccccc2Cl)n1` [Example P18, 2-(2-chlorophenyl)-1-(7-fluoro-5-(2-((1-methyl-1H-pyrazol-5-yl)amino)pyrimidin-4-yl)indolin-1-yl)ethan-1-one] here?
The IC50 was 3 nM.
